The assay addresses T1, PLD (phospholipase D).
T1 construct: fused on or other part: N-terminal polyhistidine tag (pFastBac HTc) on either enzyme
Briefly: In vitro assay of PLD activity ([3H]-choline release from labelled PC). The format is biochemical, human. The conditions noted are these: Table 1, monocyclic thiazolidinones of Formula I; PLD isoform not stated; read-out: IC50. The procedure: Recombinant PLD1 and PLD2—Human PLD1 and PLD2 were isolated from Sf9 insect cells that had been infected with recombinant baculovirus vector, pFastBac™HTc vector (Life Technologies, Gaithersburg, Md.), containing PLD1 or PLD2 cDNAs.
PLD1 activity was assayed by measuring the generation of [^3H]-choline from [choline-methyl^3H](16:0, 16:0)PC.
The assay procedure for PLD2 was similar to that for PLD1, with the exception that arf1, PKC-α, and GTPγS were omitted from the reaction mixture. After addition of enzymes, the reactions were incubated for 1 hour at room temperature. Twenty microliters of 12% trichloroacetic acid (TCA) then were added to each sample, to stop the reaction and to precipitate the unreacted [choline-methyl^3H](16:0, 16:0)PC. Thereafter, the samples were passed through 0.65 μm Millipore 96 well filter plates to removed the excess [choline-methyl^3H](16:0, 16:0)PC. For each sample the filtrate (50 μl), which contained the [^3H]-choline released by PLD cleavage of PC, was analyzed using a TopCount™ Liquid Scintillation Counter, a product of Packard (Meriden, Conn.).
For `O=C(O)CN1C(=O)/C(=C\c2ccc(-c3ccccc3)o2)SC1=S` [Compound 1, [4-oxo-5-(5-phenyl-furan-2-ylmethylene)-2-thioxo-thiazolidin-3-yl]-acetic acid], the half-inhibitory concentration (IC50) amounted to 4000 nM. The figure for `O=C(O)CN1C(=O)/C(=C\c2ccc(-c3cccc(Cl)c3)o2)SC1=S` [Compound 3, {5-[5-(3-chloro-phenyl)-furan-2-ylmethylene]-4-oxo-2-thioxo-thiazolidin-3-yl}-acetic acid] is 2000 nM. For `O=C(O)CCN1C(=O)/C(=C/c2ccc(-c3ccccc3Cl)o2)SC1=S` [Compound 4, 3-{5-[5-(2-chloro-phenyl)-furan-2-ylmethylene]-4-oxo-2-thioxo-thiazolidin-3-yl}-propionic acid] the value was 800 nM.

Turning to `O=C(O)CN1C(=O)/C(=C\c2ccc(-c3ccccc3Cl)o2)SC1=S` [Compound 5, {5-[5-(2-chloro-phenyl)-furan-2-ylmethylene]-4-oxo-2-thioxo-thiazolidin-3-yl}-acetic acid], the IC50 worked out at 1800 nM. With `O=C(O)c1cccc(-c2ccc(/C=C3/SC(=S)N(c4cccc(Cl)c4)C3=O)o2)c1` [Compound 6, 3-{5-[3-(3-chloro-phenyl)-4-oxo-2-thioxo-thiazolidin-5-ylidenemethyl]-furan-2-yl}-benzoic acid], the IC50 came to 400 nM.

Turning to `COc1ccc(N2C(=O)/C(=C\c3ccc(-c4cccc(C(=O)O)c4)o3)SC2=S)cc1` [Compound 7, 3-{5-[3-(4-methoxy-phenyl)-4-oxo-2-thioxo-thiazolidin-5-ylidenemethyl]-furan-2-yl}-benzoic acid], the IC50 was 1300 nM. For `O=C(O)c1ccc(-c2ccc(/C=C3\SC(=S)N(c4cccc(C(F)(F)F)c4)C3=O)o2)cc1` [Compound 8, 4-{5-[4-oxo-2-thioxo-3-(3-trifluoromethyl-phenyl)-thiazolidin-5-ylidenemethyl]-furan-2-yl}-benzoic acid] the value was 1400 nM; for `CCN1C(=O)/C(=C\c2ccc(-c3cccc(C(=O)O)c3)o2)SC1=S` [Compound 9, 3-[5-(3-ethyl-4-oxo-2-thioxo-thiazolidin-5-ylidenemethyl)-furan-2-yl]-benzoic acid], 600 nM.

In the case of `Cc1cccc(N2C(=O)/C(=C/c3ccc(-c4ccc(C(=O)O)cc4)o3)SC2=S)c1` [Compound 10, 4-[5-(4-oxo-2-thioxo-3-m-tolyl-thiazolidin-5-ylidenemethyl)-furan-2-yl]-benzoic acid], the IC50 was determined as 600 nM. For `Cc1cccc(N2C(=O)/C(=C/c3ccc(-c4cccc(C(=O)O)c4)o3)SC2=S)c1` [Compound 11, 3-[5-(4-oxo-2-thioxo-3-m-tolyl-thiazolidin-5-ylidenemethyl)-furan-2-yl]-benzoic acid] the value was < 400 nM; for `COc1ccc(N2C(=O)/C(=C\c3ccc(-c4ccc(C(=O)O)cc4)o3)SC2=S)cc1` [Compound 12, 4-{5[3-(4-methoxy-phenyl)-4-oxo-2-thioxo-thiazolidin-5-ylidenemethyl]-furan-2-yl}-benzoic acid], < 400 nM. For `O=C(O)c1ccc(-c2ccc(/C=C3\SC(=S)N(c4cccc(F)c4)C3=O)o2)cc1` [Compound 13, 4-{5-[3-(3-fluoro-phenyl)-4-oxo-2-thioxo-thiazolidin-5-ylidenemethyl]-furan-2-yl}-benzoic acid], the IC50 came out at 1700 nM. The figure for `O=C(O)c1ccc(-c2ccc(/C=C3\SC(=S)N(Cc4ccccc4)C3=O)o2)cc1` [Compound 14, 4-[5-(3-benzyl-4-oxo-2-thioxo-thiazolidin-5-ylidenemethyl)-furan-2-yl]-benzoic acid] is < 400 nM; for `Cc1ccc(N2C(=O)/C(=C/c3ccc(-c4ccc(C(=O)O)cc4)o3)SC2=S)c(C)c1` [Compound 15, 4-{5-[3-(2,4-dimethyl-phenyl)-4-oxo-2-thioxo-thiazolidin-5-ylidenemethyl]-furan-2-yl}-benzoic acid] it is < 400 nM; for `O=C(O)c1cccc(-c2ccc(/C=C3\SC(=S)N(Cc4ccccc4)C3=O)o2)c1` [Compound 16, 3-[5-(3-benzyl-4-oxo-2-thioxo-thiazolidin-5-ylidenemethyl)-furan-2-yl]-benzoic acid] it is < 900 nM. The figure for `O=C(O)c1ccc(-c2ccc(/C=C3\SC(=S)N(C4CCCCC4)C3=O)o2)cc1` [Compound 17, 4-[5-(3-cyclohexyl-4-oxo-2-thioxo-thiazolidin-5-ylidenemethyl)-furan-2-yl]-benzoic acid] is 500 nM; for `O=C(O)c1cccc(-c2ccc(/C=C3\SC(=S)N(c4cccc(F)c4)C3=O)o2)c1` [Compound 18, 3-{5-[3-(3-fluoro-phenyl)-4-oxo-2-thioxo-thiazolidin-5-ylidenemethyl]-furan-2-yl}-benzoic acid] it is < 400 nM; for `Cc1ccc(N2C(=O)/C(=C/c3ccc(-c4cccc(C(=O)O)c4)o3)SC2=S)c(C)c1` [Compound 19, 3-{5-[3-(2,4-dimethyl-phenyl)-4-oxo-2-thioxo-thiazolidin-5-ylidenemethyl]-furan-2-yl}-benzoic acid] it is < 400 nM. For `C=CCN1C(=O)/C(=C\c2ccc(-c3cccc(C(=O)O)c3)o2)SC1=S` [Compound 20, 3-[5-(3-allyl-4-oxo-2-thioxo-thiazolidin-5-ylidenemethyl)-furan-2-yl]-benzoic acid] the value was 500 nM; for `O=C(O)CCCN1C(=O)/C(=C/c2ccc(-c3ccc(Cl)c(Cl)c3)o2)SC1=S` [Compound 21, 4-{5-[5-(3,4-dichloro-phenyl)-furan-2-ylidenemethyl]-4-oxo-2-thioxo-thiazolidin-3-yl}-butyric acid], 400 nM; for `O=C(O)CCCN1C(=O)/C(=C/c2ccc(-c3ccc(O)c(O)c3)o2)SC1=S` [Compound 22, 4-{5-[5-(3,4-dihydroxy-phenyl)-furan-2-ylidenemethyl]-4-oxo-2-thioxo-thiazolidin-3-yl}-butyric acid], 1600 nM. As for `O=C(O)c1ccc(N2C(=O)/C(=C/C=C/c3ccccc3)SC2=S)cc1` [Compound 23, 4-[4-oxo-5-(3-phenyl-allylidene)-2-thioxo-thiazolidin-3-yl]-benzoic acid], the IC50 is 9000 nM. The figure for `O=C(O)c1cccc(-c2ccc(/C=C3\SC(=S)N(C4CCCCC4)C3=O)o2)c1` [Compound 24, 3-[5-(3-Cyclohexyl-4-oxo-2-thioxo-thiazolidin-5-ylidenemethyl)-furan-2-yl]-benzoic acid] is < 400 nM. On to `COC(=O)c1ccc(-c2ccc(/C=C3\SC(=S)N(Cc4cc(OC)c(OC)c(OC)c4)C3=O)o2)cc1` [Compound 26, 4-{5-[4-oxo-2-thioxo-3-(3,4,5-trimethoxy-benzyl)-thiazolidin-5-ylidenemethyl]-furan-2-yl}-benzoic acid methyl ester], for which the IC50 was found to be 3000 nM. For the compound `COc1cc(CN2C(=O)/C(=C/c3ccc(-c4ccc(C(=O)O)cc4)o3)SC2=S)cc(OC)c1OC` [Compound 27, 4-{5-[4-oxo-2-thioxo-3-(3,4,5-trimethoxy-benzyl)-thiazolidin-5-ylidenemethyl]-furan-2-yl}-benzoic acid], the IC50 worked out at 3000 nM.

On to `COC(=O)c1ccc(-c2ccc(/C=C3\SC(=S)N(CCCN4CCOCC4)C3=O)o2)cc1` [Compound 28, 4-{5-[3-(3-morpholin-4-yl-propyl)-4-oxo-2-thioxo-thiazolidin-5-ylidenemethyl]-furan-2-yl}-benzoic acid methyl ester], for which the 50% inhibitory concentration (IC50) came to 1500 nM.

Values taken from patent US20040002526A1, “Phospholipase D inhibitors and uses thereof” (Cell Therapeutics, Inc., priority 2002, published 2004).
